Results on 29 molecules are retold here after patent US20200216439A1, “HETERO-1,5,6,7-TETRAHYDRO-4H-INDOL-4-ONES” (BAYER PHARMA AKTIENGESELLSCHAFT, priority 2015, published 2020).

For the assay, the target named is T1, catalytic domain of human Bub1 (amino acids 704-1085) (Homo sapiens, UniProt O43683).
T1 construct: catalytic domain of human Bub1 (amino acids 704-1085); His6 (N); made in house; host or cells: Hi5 insect cells
T1 sequence (O43683 704-1085): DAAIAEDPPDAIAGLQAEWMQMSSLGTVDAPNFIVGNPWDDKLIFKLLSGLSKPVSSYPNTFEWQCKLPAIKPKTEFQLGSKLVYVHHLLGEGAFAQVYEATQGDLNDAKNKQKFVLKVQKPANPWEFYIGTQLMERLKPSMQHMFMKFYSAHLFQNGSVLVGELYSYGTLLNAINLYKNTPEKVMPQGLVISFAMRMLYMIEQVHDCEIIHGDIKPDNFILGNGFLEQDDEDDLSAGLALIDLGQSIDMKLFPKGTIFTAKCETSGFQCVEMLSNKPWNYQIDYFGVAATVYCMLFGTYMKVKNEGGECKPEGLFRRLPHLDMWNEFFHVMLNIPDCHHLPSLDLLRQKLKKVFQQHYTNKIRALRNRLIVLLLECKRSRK
Description: Bub1 kinase assay (TR-FRET). The following applies: TR-FRET; ATP 10 μM, peptide substrate 1 μM; 60 min at 22° C.; average or median if tested more than once; read-out: Inhibition of Bub1 kinase IC50. The assay is classed as biochemical. The essentials: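 Human Bub1 catalytic domain (704-1085, His6-tagged, Hi5-expressed, ~200 ng/mL) preincubated with compound 15 min at 22 °C, then reacted 60 min at 22 °C with 10 μM ATP and 1 μM biotinylated peptide substrate, pH 7.5. EDTA stop; TR-FRET 665/620 ratio; IC50 from 4-parameter fit, 11 concentrations in duplicate.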
Turning to `COC(=O)N1CC(=O)c2c([nH]c(-c3ccncc3OCC3CC3)c2Nc2ccccc2)C1` [Example 250, Methyl 2-[3-(cyclopropylmethoxy)pyridin-4-yl]-4-oxo-3-(phenylamino)-1,4,5,7-tetrahydro-6H-pyrrolo[2,3-c]pyridine-6-carboxylate], the IC50 amounted to 9 nM. With `CC(=O)Nc1cc(-c2[nH]c3c(c2Nc2ccc(C)cc2)C(=O)CN(S(=O)(=O)C(C)C)C3)ccn1` [Example 318, N-(4-(3-[(4-Methylphenyl)amino]-4-oxo-(propan-2-ylsulfonyl)-1,5,6,7-tetrahydro-1H-pyrrolo[2,3-c]pyridin-2-yl)pyridin-2-yl)acetamide] the figure was 31 nM; with `COc1ccc(C(=O)Nc2cc(-c3[nH]c4c(c3Nc3ccccc3)C(=O)CN(C(=O)N3C[C@@H](C)O[C@@H](C)C3)C4)ccn2)cc1F` [Example 292, N-4-[6-[(2R,6S)-2,6-Dimethylmorpholin-4-yl]carbonyl-4-oxo-3-(phenylamino)-4,5,6,7-tetrahydro-1H-pyrrolo[2,3-c]pyridin-2-yl]pyridin-2-yl-3-fluoro-4-methoxybenzamide], 214 nM; with `O=C1CN(C(=O)NC2CCOCC2)Cc2[nH]c(-c3ccncc3)c(Nc3ccccc3)c21` [Example 96, 4-Oxo-3-(phenylamino)-2-(pyridin-4-yl)-N-(tetrahydro-2H-pyran-4-yl)-1,4,5,7-tetrahydro-6H-pyrrolo[2,3-c]pyridine-6-carboxamide], 55 nM.

For `O=C1CN(C(=O)c2ccccn2)Cc2[nH]c(-c3ccncc3)c(Nc3ccccc3)c21` [Example 61, 3-(phenylamino)-2-(pyridin-4-yl)-6-(pyridin-2-ylcarbonyl)-1,5,6,7-tetrahydro-4H-pyrrolo[2,3-c]pyridin-4-one], the IC50 worked out at 40 nM.

As to `CC(C)(O)CC(=O)N1CC(=O)c2c([nH]c(-c3ccnc(NC(=O)[C@@H]4C[C@@H]4F)c3)c2Nc2ccccc2)C1` [Example 201], the IC50 came to 6 nM. With `CC(C)S(=O)(=O)N1CC(=O)c2c([nH]c(-c3ccncc3OCC(F)F)c2Nc2ccccc2)C1` [Example 241, 2-[3-(2,2-Difluoroethoxy)pyridin-4-yl]-3-(phenylamino)-6-(propan-2-ylsulfonyl)-1,5,6,7-tetrahydro-4H-pyrrolo[2,3-c]pyridin-4-one] the figure was 13 nM; with `COc1ccc(C(=O)Nc2cc(-c3[nH]c4c(c3Nc3ccccc3)C(=O)CN(C(=O)N3CCOCC3)C4)ccn2)cc1F` [Example 291, 3-Fluoro-4-methoxy-N-4-[6-(morpholin-4-ylcarbonyl)-4-oxo-3-(phenylamino)-4,5,6,7-tetrahydro-1H-pyrrolo[2,3-c]pyridin-2-yl]pyridin-2-ylbenzamide], 6 nM; with `O=C1C[S+]([O-])Cc2[nH]c(-c3ccncc3)c(Nc3ccccc3)c21` (centres unmarked) [Example 20, 3-(phenylamino)-2-(pyridin-4-yl)-1,7-dihydrothiopyrano[3,4-b]pyrrol-4(5H)-one 6-oxide], 152 nM.

Consider `CC(=O)Nc1cc(-c2[nH]c3c(c2Nc2ccc(F)cc2)C(=O)CN(C(C)=O)C3)ccn1` [Example 312, N-(4-(6-Acetyl-3-[(4-fluorophenyl)amino]-4-oxo-4,5,6,7-tetrahydro-1H-pyrrolo[2,3-c]pyridin-2-yl)pyridin-2-yl)acetamide], for which the IC50 came to 16 nM. With `CNC(=O)N1CC(=O)c2c([nH]c(-c3ccncc3OCC(F)(F)F)c2Nc2ccccc2)C1` [Example 243, N-Methyl-44-oxo-3-(phenylamino)-2-[3-(2,2,2-trifluoroethoxy)pyridin-4-yl]-1,4,5,7-tetrahydro-6H-pyrrolo[2,3-c]pyridine-6-carboxamide] the figure was 55 nM; with `CCN(CC)C(=O)N1CC(=O)c2c([nH]c(-c3ccnc(NC(=O)[C@@H]4C[C@@H]4F)c3)c2Nc2ccccc2)C1` [Example 217, N,N-Diethyl-2-[2-([(1S,2S)-2-fluorocyclopropyl]carbonylamino)pyridin-4-yl]-4-oxo-3-(phenylamino)-1,4,5,7-tetrahydro-6H-pyrrolo[2,3-c]pyridine-6-carboxamide], 4 nM. Next, `CN(C)CCOc1cnccc1-c1[nH]c2c(c1Nc1ccccc1)C(=O)CN(S(=O)(=O)N(C)C)C2` [Example 279, 2-3-[2-(Dimethylamino)ethoxy]pyridin-4-yl-N,N-dimethyl-4-oxo-3-(phenylamino)-1,4,5,7-tetrahydro-6H-pyrrolo[2,3-c]pyridine-6-sulfonamide]: 6 nM; `COCCOc1cnccc1-c1[nH]c2c(c1Nc1ccccc1)C(=O)CNC2` [Example 226, 3-anilino-2-[3-(2-methoxyethoxy)pyridin-4-yl]-1,5,6,7-tetrahydro-4H-pyrrolo[2,3-c]pyridin-4-one]: 72 nM.

Take `CC(=O)Nc1cc(-c2[nH]c3c(c2Nc2ccccc2)C(=O)CN(C(=O)c2cscn2)C3)ccn1` [Example 194, N-{4-[3-Anilino-4-oxo-6-(1,3-thiazol-4-ylcarbonyl)-4,5,6,7-tetrahydro-1H-pyrrolo[2,3-c]pyridin-2-yl]pyridin-2-yl}acetamide]: the IC50 was 46 nM. With `O=C1CNCc2[nH]c(-c3ccncc3F)c(Nc3ccccc3)c21` [Example 101, 2-(3-Fluoropyridin-4-yl)-3-(phenylamino)-1,5,6,7-tetrahydro-4H-pyrrolo[2,3-c]pyridin-4-one] the figure was 43 nM; with `CN(C)CC(=O)Nc1cc(-c2[nH]c3c(c2Nc2ccccc2)C(=O)COC3)ccn1` [Example 153, N-[4-(3-Anilino-4-oxo-1,4,5,7-tetrahydropyrano[3,4-b]pyrrol-2-yl)pyridin-2-yl]-N^2,N^2-dimethylglycinamide], 510 nM. With `CCCN(C)C(=O)N1CC(=O)c2c([nH]c(-c3ccnc(NC(C)=O)c3)c2Nc2ccccc2)C1` [Example 187, 2-(2-Acetamidopyridin-4-yl)-3-anilino-N-methyl-4-oxo-N-propyl-1,4,5,7-tetrahydro-6H-pyrrolo[2,3-c]pyridine-6-carboxamide] the figure was 3 nM; with `COC(=O)N1CC(=O)c2c([nH]c(-c3ccnc(NC(=O)C(C)(C)F)c3)c2Nc2ccccc2)C1` [Example 144, Methyl 3-anilino-2-{2-[(2-fluoro-2-methylpropanoyl)amino]pyridin-4-yl}-4-oxo-1,4,5,7-tetrahydro-6H-pyrrolo[2,3-c]pyridine-6-carboxylate], 20 nM; with `COC(=O)N1CC(=O)c2c([nH]c(-c3ccnc(NC(=O)[C@@H]4C[C@@H]4F)c3)c2Nc2ccccc2)C1` [Example 205, Methyl 2-[2-([(1S,2S)-2-fluorocyclopropyl]carbonylamino)pyridin-4-yl]-4-oxo-3-(phenylamino)-1,4,5,7-tetrahydro-6H-pyrrolo[2,3-c]pyridine-6-carboxylate], 3 nM.

In the case of `CS(=O)(=O)N1CC(=O)c2c([nH]c(-c3ccnc(NC(=O)[C@H]4C[C@H]4F)c3)c2Nc2ccccc2)C1` (relative stereo) [Example 148, rel-(1R,2R)—N-{4-[3-Anilino-6-(methylsulfonyl)-4-oxo-4,5,6,7-tetrahydro-1H-pyrrolo[2,3-c]pyridin-2-yl]pyridin-2-yl}-2-fluorocyclopropanecarboxamide], the half-inhibitory concentration (IC50) came to 4 nM. Next, `CC(=O)Nc1cc(-c2[nH]c3c(c2Nc2ccc(F)cc2)C(=O)CNC3)ccn1` [Example 302, N-(4-{3-[(4-Fluorophenyl)amino]-4-oxo-4,5,6,7-tetrahydro-1H-pyrrolo[2,3-c]pyridin-2-yl}pyridin-2-yl)acetamide]: 297 nM; `COc1cnccc1-c1[nH]c2c(c1Nc1ccccc1)C(=O)CN(S(=O)(=O)C(C)C)C2` [Example 109, 2-(3-Methoxypyridin-4-yl)-3-(phenylamino)-6-(propan-2-ylsulfonyl)-1,5,6,7-tetrahydro-4H-pyrrolo[2,3-c]pyridin-4-one]: 7 nM; `O=C1CN(C(=O)N2CCNC2=O)Cc2[nH]c(-c3ccncc3)c(Nc3ccccc3)c21` [Example 91, 6-[(2-Oxoimidazolidin-1-yl)carbonyl]-3-(phenylamino)-2-(pyridin-4-yl)-1,5,6,7-tetrahydro-4H-pyrrolo[2,3-c]pyridin-4-one]: 14 nM.

In the case of `O=C1CN(C(=O)C2CC2)Cc2[nH]c(-c3ccncc3)c(Nc3ccccc3)c21` [Example 5, 6-(Cyclopropylcarbonyl)-3-(phenylamino)-2-(pyridin-4-yl)-1,5,6,7-tetrahydro-4H-pyrrolo[2,3-c]pyridin-4-one], the IC50 was found to be 5 nM. With `CNS(=O)(=O)N1CC(=O)c2c([nH]c(-c3ccnc(NC(C)=O)c3)c2Nc2ccc(F)cc2)C1` [Example 315, N-(4-(3-[(4-Fluorophenyl)amino]-6-(methylsulfamoyl)-4-oxo-4,5,6,7-tetrahydro-1H-pyrrolo[2,3-c]pyridin-2-yl)pyridin-2-yl)acetamide] the figure was 4 nM; with `COc1cc(C(=O)Nc2cc(-c3[nH]c4c(c3Nc3ccccc3)C(=O)CN(C(=O)N3C[C@@H](C)O[C@@H](C)C3)C4)ccn2)ccc1F` [Example 261, N-4-[6-[(2R,6S)-2,6-Dimethylmorpholin-4-yl]carbonyl-4-oxo-3-(phenylamino)-4,5,6,7-tetrahydro-1H-pyrrolo[2,3-c]pyridin-2-yl]pyridin-2-yl-4-fluoro-3-methoxybenzamide], 351 nM; with `CS(=O)(=O)CC(=O)Nc1cc(-c2[nH]c3c(c2Nc2ccccc2)C(=O)COC3)ccn1` [Example 48, 2-(Methylsulfonyl)-N-{4-[4-oxo-3-(phenylamino)-1,4,5,7-tetrahydropyrano[3,4-b]pyrrol-2-yl]pyridin-2-yl}acetamide], 115 nM.

For `CC(=O)Nc1cc(-c2[nH]c3c(c2Nc2ccccc2)C(=O)CN(S(C)(=O)=O)C3)ccn1` [Example 32, N-{4-[6-(Methylsulfonyl)-4-oxo-3-(phenylamino)-4,5,6,7-tetrahydro-1H-pyrrolo[2,3-c]pyridin-2-yl]pyridin-2-yl}acetamide], the IC50 is 4 nM.
